Source: patent publication US10449206B2, “Indolealkylamino-withasteroid conjugates and method of use” (Natreon, Inc., priority 2011, dated 2019)
Structures can show the parent of a compound that is named as a salt. Marks after values point to notes of the source that are not given here.

Columns and labels:
[1] = system: Scopolamine-induced amnesic mice; assay: Scopolamine hydrobromide-induced amnesia, transfer latency on elevated plus maze; conditions: for Transfer Latency, Day 8: learning trial; for % Decrease in Transfer Latency, Mean ± SD: Table 16
Method: The elevated plus maze is used to measure the memory learning activity in mice; however, transfer latency, i.e., the time elapsed between the movement of the animal from an open to an enclosed arm was markedly shortened if the animal had previously experienced entering open and closed arms.
Retention was recorded after 24 hrs (9th day) and after an interval of one week (16th day).
Drug protocol. The animals were divided into 7 groups (Group I-VII) of eight animals in each group. Group I received vehicle (0.3% CMC) only and served as vehicle control. Groups II-VII were treated with the respective test drugs, as per the details mentioned in Table 1 below, for 16 days. […] Transfer Latency was recorded after 45 minutes of the drug administration on 8th day (learning trial) and 24 hrs (9th day) and one week (16th day) after learning trial.
Retention in elevated plus maze test was used to assess the memory functions in test animals. The plus maze consists of two open opposite arms, (50×10 cm) length×width, crossed with two enclosed arms of same dimensions with walls 40 cm high. The arms are connected with a central square, (10×10 cm) to give the apparatus a plus-sign appearance. The maze was kept elevated 50 cm above the floor in a dimly lit room. On day 8, mice were individually placed on far end of one of the open arms facing away from the center and transfer latency (TL) on day 8 was recorded. TL is the time taken by the mouse to move into any one of the covered arms with all its four legs. […] On day 9, the mice were again placed on the far end of the open arm and time taken by the mice to enter the enclosed arm, transfer latency (TL) day 9, was recorded. Similarly after an interval of one week, on day 16, the transfer latency (TL) day 16 was again recorded.
The retention scores were obtained for each animal by calculating percent decrease in latency period by the formula: % decrease in TL=(L1−L0/L0)×100
where, L0=initial transfer latency period in seconds, and L1=transfer latency after 24 hrs, or one week.

[2] = target: acetylcholinesterase (AChE) (Homo sapiens, UniProt P22303); assay: In vitro acetylcholinesterase (AChE) activity assay, method of Ellman et al. with acetylthiocholine iodide as substrate; type: biochemical; conditions: for IC50: Mean ± SD of three replicates, synthetic conjugates, read-out: Acetylcholinesterase inhihitory activity IC50 (converted)
Method: The acetylcholinesterase (AChE) assay was performed by the method of Ellman et al., with minor modification, using acetylthiocholine Iodide as a substrate (G. L. Ellman, et al., “A new and rapid colorimetric determination of acetylcholinesterase activity,” Biochem. Pharmacol. (1961) 7: 88-95). Ellman's reaction mixture was made from a combination of 10 mM Acetylthiocholine iodide and 0.5 mM 5,5′-dithio-bis-(2-nitrobenzoic acid) in a 0.05 M sodium phosphate buffer (pH 7.2). The rates of hydrolysis by AChE were monitored spectrophotometrically using a 96-well microtiter plate reader. Each test sample (10 μl) and 0.05 M sodium phosphate buffer (30 μl) was mixed with the enzyme solution (10 μl). An Ellman's reaction mixture (50 μl) was further added to give a final volume of 100 μl, and the mixture was incubated at 37° C. for 30 min. Absorbance at 450 nm was recorded immediately after adding the Ellman's reaction mixture. Reading was repeated for 10 min at 2 min intervals to verify that the reaction occurred linearly. Blank reaction was measured by substituting saline for the enzyme (Y. K. Chung, et al., “Inhibitory effect of ursolic acid purified from Origanum majorana L. on the acetylcholinesterase,” Mol. Cells (2001) 11: 137-143).
The acetylcholinesterase (AChE) assay was performed by the method of Ellman et. al., with minor modification, using acetylthiocholine Iodide as a substrate (G. L. Ellman, et al., “A new and rapid colorimetric determination of acetylcholinesterase activity,” Biochem. Pharmacol. (1961) 7: 88-95). Ellman's reaction mixture was made from a combination of 10 mM Acetylthiocholine iodide and 0.5 mM 5,5′-dithio-bis-(2-nitrobenzoic acid) in a 0.05 M sodium phosphate buffer (pH 7.2). The rates of hydrolysis by AChE were monitored spectrophotometrically using a 96-well microtiter plate reader. Each test sample (10 μl) and 0.05 M sodium phosphate buffer (30 μl) was mixed with the enzyme solution (10 μl). An Ellman's reaction mixture (50 μl) was further added to give a final volume of 100 μl, and the mixture was incubated at 37° C. for 30 min. Absorbance at 450 nm was recorded immediately after adding the Ellman's reaction mixture. Reading was repeated for 10 min at 2 min intervals to verify that the reaction occurred linearly. Blank reaction was measured by substituting saline for the enzyme (Y. K. Chung, et al., “Inhibitory effect of ursolic acid purified from Origanum majorana L. on the acetylcholinesterase,” Mol. Cells (2001) 11: 137-143).

[3] = system: brain tissue Malondialdehyde (MDA); type: in vivo, Swiss Albino mice; conditions: day 16; test sample p.o. (50/20/30/1/1 mg/kg) + SH 0.5 mg/kg i.p.; mean ± SEM, n=4
Excerpt: Estimation of lipid peroxidation.
Alzheimer's disease (AD) is an irreversible neurodegenerative disorder having symptoms including confusion, memory loss, and mood swings. The beta-amyloid peptide (BAP), with 39-42 amino acid residues, plays a significant role in the development of AD. Although there is no cure for AD, it can be managed with available drugs, but only to a small degree in a small subset of patients. […] In this study, the lipid peroxidation levels in brains of different treatment groups were measured by estimating the brain tissue Malondialdehyde (MDA) concentration. 5.

[4] = system: mice; assay: Open-field exploratory behavior test, anxiety paradigm; parameters: species or system Swiss Albino mice; conditions: mouse, in vivo
Method: Drug preparation and administration of doses.
Study design. The behavioral tests conducted with multiple seven-dose schedules. The mice were tested only once after the completion of the drug treatment schedule in the elevated plus maze and open field. The studies were carried out in a sound proof room to avoid disturbances to the animals during the behavioral studies. Exposure to a novel environment is associated with emotional disturbance and anxiety. […] Anxiety is also associated with augmented autonomic activity resulting in increased defecation and urination. All these effects are accentuated by anxiogenic drugs and attenuated by anxiolytics. Standard screening procedures such as open field method and elevated plus maze test were used to screen the anxiolytic effect of drugs in comparison with a standard drug, Diazepam.
Open-field exploratory behavior test. The open field exploratory apparatus is similar to that of Bronstein (P. M. Bronstein, “Open field behaviour of the rat as a function of age: cross sectional and longitudinal investigations,” J. Comp. Physiol. Psycol. (1972) 80: 335-341). It is made of plywood and consists of squares (61×61 cm) with high walls. […] The ratio between the number of times the animal crossed the central and the number of times the animal crossed the peripheral square is calculated.

[5] = Table 2, SH 0.5 mg/kg i.p. alone, mean ± SEM
[6] = Table 15, SH 0.5 mg/kg i.p. alone, mean ± SD
[7] = Example 7B, synthetic conjugates 1 and 5 mg/kg p.o. 16 days
[8] = Table 15, conjugate 1 mg/kg p.o. + SH 0.5 mg/kg i.p., mean ± SD, n=8
[9] = Table 15, conjugate 1 mg/kg p.o., mean ± SD, n=8
[10] = Table 15, conjugate 5 mg/kg p.o. + SH 0.5 mg/kg i.p., mean ± SD, n=8
[11] = Table 15, conjugate 5 mg/kg p.o., mean ± SD, n=8
[12] = after 24 h (day 9), conjugate 1 mg/kg p.o. + SH 0.5 mg/kg i.p., n=8
[13] = after 24 h (day 9), conjugate 5 mg/kg p.o. + SH 0.5 mg/kg i.p., n=8
[14] = Table 17, after 1 week (day 16), conjugate 1 mg/kg p.o. + SH 0.5 mg/kg i.p., n=8
[15] = Table 17, after 1 week (day 16), conjugate 5 mg/kg p.o. + SH 0.5 mg/kg i.p., n=8

Sequence of acetylcholinesterase (AChE) (P22303 32-614, species assumed): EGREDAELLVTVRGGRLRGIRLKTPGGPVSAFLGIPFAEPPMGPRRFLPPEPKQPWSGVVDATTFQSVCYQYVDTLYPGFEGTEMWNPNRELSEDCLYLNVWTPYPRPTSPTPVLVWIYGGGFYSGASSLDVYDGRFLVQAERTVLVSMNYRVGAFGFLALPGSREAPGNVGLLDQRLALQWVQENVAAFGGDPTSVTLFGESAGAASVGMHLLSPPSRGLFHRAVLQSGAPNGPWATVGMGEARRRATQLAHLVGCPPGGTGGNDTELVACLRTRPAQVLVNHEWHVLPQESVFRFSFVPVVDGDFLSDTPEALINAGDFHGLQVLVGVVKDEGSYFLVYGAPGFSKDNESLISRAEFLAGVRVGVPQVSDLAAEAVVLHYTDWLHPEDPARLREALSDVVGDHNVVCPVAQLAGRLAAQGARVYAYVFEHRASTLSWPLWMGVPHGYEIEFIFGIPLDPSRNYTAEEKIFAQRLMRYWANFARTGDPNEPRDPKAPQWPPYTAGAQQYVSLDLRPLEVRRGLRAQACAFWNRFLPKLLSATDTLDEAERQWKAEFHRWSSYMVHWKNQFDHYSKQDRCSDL

SMILES	in vitro acetylcholinesterase inhibitory activity (in words) [2]	IC50 [2]	effect on Scopolamine-induced amnesia (in words) [1, 7]	Transfer Latency, Day 9 [1, 8]	Transfer Latency, Day 16 [1, 8]	Transfer Latency, Day 8 [1, 9]	Transfer Latency, Day 9 [1, 10]	Transfer Latency, Day 16 [1, 10]	Transfer Latency, Day 8 [1, 11]	% Decrease in Transfer Latency, Mean ± SD [1, 12]	% Decrease in Transfer Latency, Mean ± SD [1, 13]	% Decrease in Transfer Latency, Mean ± SEM [1, 14]	% Decrease in Transfer Latency, Mean ± SEM [1, 15]	other results
CN1[C@@H]2C[C@@H](OC(=O)[C@H](CO)c3ccccc3)C[C@H]1[C@@H]1O[C@@H]12 [SH, Scopolamine Hydrobromide, reference compound]	–	–	–	–	–	–	–	–	–	–	–	–	–	induction of amnesia (in words) ([1]; SH 0.5 mg/kg i.p. alone vs vehicle): produced amnesia in animals; Transfer Latency, Day 8 ([1]; Table 2, SH 0.5 mg/kg i.p. alone group, mean ± SEM): 171.50 ± 16.08 s; Transfer Latency, Day 9 [1, 5]: 143.90 ± 15.30 s; Transfer Latency, Day 16 [1, 5]: 133.10 ± 15.95 s; % Decrease in Transfer Latency, Mean ± SEM ([1]; Table 3, after 24 h (day 9), SH 0.5 mg/kg i.p. alone): 14.91 ± 5.75%; % Decrease in Transfer Latency, Mean ± SEM ([1]; Table 4, after 1 week (day 16), SH 0.5 mg/kg i.p. alone): 22.11 ± 5.03%; Transfer Latency, Day 8 ([1]; Table 15, SH 0.5 mg/kg i.p. alone group, mean ± SD): 160.00 ± 66.68 s; Transfer Latency, Day 9 [1, 6]: 106.00 ± 42.81^aa s; Transfer Latency, Day 16 [1, 6]: 48.17 ± 12.73 ^aaa s; % Decrease in Transfer Latency, Mean ± SD ([1]; after 24 h (day 9), SH 0.5 mg/kg i.p. alone): 29.86 ± 17.79%; % Decrease in Transfer Latency, Mean ± SEM ([1]; Table 17, after 1 week (day 16), SH 0.5 mg/kg i.p. alone): 63.54 ± 18.87^aa %
COc1ccc2[nH]cc(CCNC3CC(=O)[C@]4(C)[C@H]5CC[C@]6(C)[C@@H]([C@H](C)[C@H]7CC(C)=C(CO)C(=O)O7)CC[C@H]6[C@@H]5C[C@H]5O[C@]54[C@H]3O)c2c1 (stereo partly shown)	good dose-dependent in-vitro acetylcholinesterase inhibitory activity	149 µM	significantly attenuated and reversed the Scopolamine-induced amnesia	76.63 ± 33.95 s	43.13 ± 12.43 s	139.1 ± 25.05 s	37.25 ± 4.43^bb s	18.00 ± 4.14^bbb s	141.00 ± 35.66 s	45.62 ± 16.51%	72.18 ± 6.60. %	69.13 ± 5.38%	85.79 ± 9.92^bb %	–
CC1=C(CO)C(=O)O[C@@H]([C@@H](C)[C@H]2CC[C@H]3[C@@H]4C[C@H]5O[C@]56[C@@H](O)C=CC(=O)[C@]6(C)[C@H]4CC[C@]23C)C1 [Withaferin-A, Withaferin A, reference compound]	only feeble inhibitory activity	–	–	–	–	–	–	–	–	–	–	–	–	MDA Content, brain tissue [3]: 4.77 ± 0.07 nmol/mL; anxiolytic effect in open field test (in words) [4]: did not show any anxiolytic effect; effect on Scopolamine-induced amnesia (in words) ([1]; Example 4A, WS extract and fractions p.o. 16 days): did not protect from or attenuate the Scopolamine-induced amnesia; Transfer Latency, Day 9 ([1]; Table 2, 24 h after SH 0.5 mg/kg i.p., test sample p.o. (50/20/30/1/1 mg/kg), mean ± SEM, n=8): 124.00 ± 13.27 s; Transfer Latency, Day 8 ([1]; Table 2, test sample p.o. daily (WS-74 50, Ace Sol 20, Ace Insol 30, IAEF-A 1, Withaferin-A 1 mg/kg), mean ± SEM, n=8): 180.40 ± 8.04 s; Transfer Latency, Day 16 ([1]; Table 2, one week after SH 0.5 mg/kg i.p., test sample p.o. 16 days (50/20/30/1/1 mg/kg), mean ± SEM, n=8): 114.90 ± 13.10 s; % Decrease in Transfer Latency, Mean ± SEM ([1]; Table 3, after 24 h (day 9), test sample p.o. (50/20/30/1/1 mg/kg) + SH 0.5 mg/kg i.p., n=8): 29.28 ± 9.43%; % Decrease in Transfer Latency, Mean ± SEM ([1]; Table 4, after 1 week (day 16), test sample p.o. (50/20/30/1/1 mg/kg) + SH 0.5 mg/kg i.p., n=8): 34.33 ± 9.30%
CC1=C(CO)C(=O)O[C@@H]([C@@H](C)[C@H]2CC[C@H]3[C@@H]4C[C@H]5O[C@]56[C@@H](O)C(NCCc5c[nH]c7ccccc57)CC(=O)[C@]6(C)[C@H]4CC[C@]23C)C1 (stereo partly shown) [Tryptamino-withaferin-A conjugate]	good dose-dependent in-vitro acetylcholinesterase inhibitory activity	56.1 µM	significantly attenuated and reversed the Scopolamine-induced amnesia	56.17 ± 21.99^b s	16.50 ± 9.52^bbb s	178.00 ± 117.90 s	51.67 ± 15.28 ^b s	15.17 ± 10.09^bbb s	159.00 ± 126.20 s	54.97 ± 27.54%	59.93 ± 13.31%	88.10 ± 6.17^b %	85.72 ± 11.96^bb %	–
